Data taken from patent publication US12162872B2, “Cycloalkylurea derivative” (Sumitomo Pharma Co., Ltd., priority 2019, dated 2024).

biological target: T1, Human orexin receptor type 2 (Homo sapiens, UniProt O43614); test: Test 1: Evaluation of agonist activity for orexin receptor type 2 (aequorin luminescence, intracellular calcium mobilization in CHO cells); type: cell-based; settings: relative percentage of luminescence for the luminescence (100%) of Orexin A (100 pM); CHO cells transiently expressing human orexin receptor type 2 and apoaequorin; Orexin A Lot. 641114
T1 construct: expressed in transfected cells; host or cells: CHO cells (transient expression)
T1 sequence (O43614 1-444): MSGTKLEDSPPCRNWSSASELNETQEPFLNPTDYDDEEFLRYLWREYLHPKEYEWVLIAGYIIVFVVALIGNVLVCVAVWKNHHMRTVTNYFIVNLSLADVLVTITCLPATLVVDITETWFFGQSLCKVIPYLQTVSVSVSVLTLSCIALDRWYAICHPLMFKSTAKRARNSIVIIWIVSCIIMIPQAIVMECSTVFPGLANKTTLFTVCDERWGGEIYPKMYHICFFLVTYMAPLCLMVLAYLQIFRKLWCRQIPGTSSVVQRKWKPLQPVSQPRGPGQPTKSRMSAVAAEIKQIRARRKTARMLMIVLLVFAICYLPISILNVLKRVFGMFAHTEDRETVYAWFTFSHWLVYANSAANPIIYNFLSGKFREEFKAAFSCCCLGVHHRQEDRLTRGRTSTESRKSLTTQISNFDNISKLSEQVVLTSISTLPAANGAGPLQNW
Description: Test 1: Evaluation of Agonist Activity for Orexin Receptor Type 2
Human orexin receptor type 2 and apoaequorin were transiently expressed in CHO cells, and the agonist activity was evaluated based on intracellular calcium mobilization with ligand stimulation. The CHO cells transiently-expressed human orexin receptor type 2 and apoaequorin were seeded on a 384-well plate by 2,000 cells/well, and then incubated for 16-22 hours. After the plate was returned to room temperature, Coelenterazine hcp (final concentration: 1 μM) was added to the plate, and the plate was allowed to stand at room temperature for 2 hours. And then, Orexin A (PEPTIDE INSTITUTE, INC., Lot. 641114) or each test compound was added to the plate, and the luminescence of the cells was measured with FDSS7000 (Hamamatsu Photonics K.K.), wherein Orexin A and each test compound were dissolved in DMSO (final concentration: 0.1%), and diluted with a buffer (Hanks, 20 mM HEPES, 0.1% BSA). The agonist activity of each test compound for orexin receptor type 2 was calculated as relative percentage of luminescence for the luminescence (100%) of Orexin A (100 pM).

Row | SMILES | agonist activity (%)
1 | CC(C)N1CC[C@@H](O[C@H]2CCCC(F)(F)[C@@H]2NC(=O)N2CCC(C)(c3noc([C@@H]4C[C@@H]4F)n3)CC2)C1 [Example 73, N-[(1R,6S)-2,2-difluoro-6-{[(3R)-1-(propan-2-yl)pyrrolidin-3-yl]oxy}cyclohexyl]-4-{5-[(1S,2S)-2-fluorocyclopropyl]-1,2,4-oxadiazol-3-yl}-4-methylpiperidine-1-carboxamide] | 185%
2 | Cc1ccc(C2(C)CCN(C(=O)N[C@@H]3[C@@H](N4C5CCC4CN(C(C)C)C5)CCCC3(F)F)CC2)cc1 [Example 63, N-{(1R,6S)-2,2-difluoro-6-[3-(propan-2-yl)-3,8-diazabicyclo[3.2.1]octan-8-yl]cyclohexyl}-4-methyl-4-(4-methylphenyl)piperidine-1-carboxamide] | 149%
3 | CC(C)N1CCN([C@H]2CCCC(F)(F)[C@@H]2NC(=O)N2CCC(C3CCCCC3)CC2)CC1 (racemic) [Example 35, rac-4-cyclohexyl-N-{(1R,6S)-2,2-difluoro-6-[4-(propan-2-yl)piperazin-1-yl]cyclohexyl}piperidine-1-carboxamide] | 165%
4 | CC(C)N1CC[C@H](O[C@H]2CCCC(F)(F)[C@@H]2NC(=O)N2CCC(C)(c3noc(C4CC4)n3)CC2)C1 [Example 71, 4-(5-cyclopropyl-1,2,4-oxadiazol-3-yl)-N-[(1R,6S)-2,2-difluoro-6-{[(3S)-1-(propan-2-yl)pyrrolidin-3-yl]oxy}cyclohexyl]-4-methylpiperidine-1-carboxamide] | 199%
5 | COc1nc(C2(C)CCN(C(=O)N[C@@H]3[C@@H](N4CCN(C(C)C)CC4)CCCC3(F)F)CC2)ns1 (racemic) [Example 45, rac-N-{(1R,6S)-2,2-difluoro-6-[4-(propan-2-yl)piperazin-1-yl]cyclohexyl}-4-(5-methoxy-1,2,4-thiadiazol-3-yl)-4-methylpiperidine-1-carboxamide] | 150%
6 | CC(C)N1CC2CCC(C1)N2[C@H]1CCCC(F)(F)[C@@H]1NC(=O)N1CCC(C)(c2cc(C3CC3)on2)CC1 [Example 65, 4-(5-cyclopropyl-1,2-oxazol-3-yl)-N-{(1R,6S)-2,2-difluoro-6-[3-(propan-2-yl)-3,8-diazabicyclo[3.2.1]octan-8-yl]cyclohexyl}-4-methylpiperidine-1-carboxamide] | 155%
7 | CC(C)N1CCN([C@H]2CCCC(F)(F)[C@@H]2NC(=O)N2CCC(C)(c3noc(CC(F)(F)F)n3)CC2)CC1 [Example 70, N-{(1R,6S)-2,2-difluoro-6-[4-(propan-2-yl)piperazin-1-yl]cyclohexyl}-4-methyl-4-[5-(2,2,2-trifluoroethyl)-1,2,4-oxadiazol-3-yl]piperidine-1-carboxamide] | 141%
8 | CC(C)N1CCN([C@H]2CCCC(F)(F)[C@@H]2NC(=O)N2CCC(C)(c3noc(C4CC4)n3)CC2)CC1 [Example 24, 4-(5-cyclopropyl-1,2,4-oxadiazol-3-yl)-N-{(1R,6S)-2,2-difluoro-6-[4-(propan-2-yl)piperazin-1-yl]cyclohexyl}-4-methylpiperidine-1-carboxamide] | 210%
9 | CC(C)N1C[C@H](O[C@H]2CCCC(F)(F)[C@@H]2NC(=O)N2CCC(C)(c3noc(C4CC4)n3)CC2)[C@@H](F)C1 [Example 75, 4-(5-cyclopropyl-1,2,4-oxadiazol-3-yl)-N-[(1R,6S)-2,2-difluoro-6-{[(3S,4S)-4-fluoro-1-(propan-2-yl)pyrrolidin-3-yl]oxy}cyclohexyl]-4-methylpiperidine-1-carboxamide] | 141%
10 | CC(C)N1CCN([C@H]2CCC[C@@H]2NC(=O)N2CCC(C)(c3cc(C4CC4)on3)CC2)CC1 (racemic) [Example 6, rac-4-(5-cyclopropyl-1,2-oxazol-3-yl)-4-methyl-N-{(1S,2S)-2-[4-(propan-2-yl)piperazin-1-yl]cyclopentyl}piperidine-1-carboxamide] | 43%
11 | CC(C)N1CCN([C@H]2CCCC(F)(F)[C@@H]2NC(=O)N2CCC(C)(C3CCC(F)(F)CC3)CC2)CC1 (racemic) [Example 30, rac-4-(4,4-difluorocyclohexyl)-N-{(1R,6S)-2,2-difluoro-6-[4-(propan-2-yl)piperazin-1-yl]cyclohexyl}-4-methylpiperidine-1-carboxamide] | 128%
12 | Cc1nc(C2(C)CCN(C(=O)N[C@H]3CCCC[C@@H]3N3CCN(C(C)C)CC3)CC2)no1 (racemic) [Example 3, rac-4-methyl-4-(5-methyl-1,2,4-oxadiazol-3-yl)-N-{(1S,2S)-2-[4-(propan-2-yl)piperazin-1-yl]cyclohexyl}piperidine-1-carboxamide] | 67%
13 | CC(C)N1CCN([C@H]2CCCC(F)(F)[C@@H]2NC(=S)N2CCC(C)(c3noc(C4CC4)n3)CC2)CC1 [Example 80, 4-(5-cyclopropyl-1,2,4-oxadiazol-3-yl)-N-{(1R,6S)-2,2-difluoro-6-[4-(propan-2-yl)piperazin-1-yl]cyclohexyl}-4-methylpiperidine-1-carbothioamide] | 178%

Further lines, results first:

Row | agonist activity (%) | SMILES
14 | 36% | Cc1ccc(C2CC=C(C(=O)O[C@@H]3[C@@H](N4CCN(C(C)C)CC4)CCCC3(F)F)CC2)cc1 (mixture of isomers) [Example 78, rac-(1R,6S)-2,2-Difluoro-6-[4-(propan-2-yl)piperazin-1-yl]cyclohexyl 4′-methyl-1,2,3,6-tetrahydro[1,1′-biphenyl]-4-carboxylate]
15 | 150% | Cc1ccc(C2(C)CCN(C(=O)N[C@@H]3[C@@H](N4CCN(C(C)C)CC4)CCCC3(F)F)CC2)cc1 (racemic) [Example 58, rac-N-{(1R,6S)-2,2-difluoro-6-[4-(propan-2-yl)piperazin-1-yl]cyclohexyl}-4-methyl-4-(4-methylphenyl)piperidine-1-carboxamide]
16 | 62% | CO[C@H]1CCC[C@H](N2CCN(C(C)C)CC2)[C@H]1NC(=O)N1CCC(c2ccc(C)cc2)CC1 (racemic) [Example 4, rac-N-{(1R,2S,6S)-2-methoxy-6-[4-(propan-2-yl)piperazin-1-yl]cyclohexyl}-4-(4-methylphenyl)piperidine-1-carboxamide]
17 | 72% | CCN1CCN([C@H]2CCCC[C@@H]2NC(=O)N2CCC(c3ccc(C)cc3)CC2)CC1 (racemic) [Example 17, rac-N-[(1S,2S)-2-(4-Ethylpiperazin-1-yl)cyclohexyl]-4-(4-methylphenyl)piperidine-1-carboxamide]
18 | 143% | COc1ccc(C2CCN(C(=O)N[C@@H]3[C@@H](N4CCN(C(C)C)CC4)CCCC3(F)F)CC2)nc1 (racemic) [Example 53, rac-N-{(1R,6S)-2,2-difluoro-6-[4-(propan-2-yl)piperazin-1-yl]cyclohexyl}-4-(5-methoxypyridin-2-yl)piperidine-1-carboxamide]
19 | 176% | CC(C)N1CCN([C@H]2CCCC(F)(F)[C@@H]2NC(=O)N2CCC(c3ccccn3)CC2)CC1 (racemic) [Example 32, rac-N-{(1R,6S)-2,2-difluoro-6-[4-(propan-2-yl)piperazin-1-yl]cyclohexyl}-4-(pyridin-2-yl)piperidine-1-carboxamide]
20 | 164% | CC(C)N1CCN([C@H]2CCCC(F)(F)[C@@H]2NC(=O)N2CCC(C)(c3ccc(C(F)F)cc3)CC2)CC1 (racemic) [Example 59, rac-4-[4-(difluoromethyl)phenyl]-N-{(1R,6S)-2,2-difluoro-6-[4-(propan-2-yl)piperazin-1-yl]cyclohexyl}-4-methylpiperidine-1-carboxamide]
21 | 56% | CC(C)N1CCN([C@H]2CCCC(F)(F)[C@@H]2OC(=O)N2CCC(C)(c3ncn(C4CC4)n3)CC2)CC1 (racemic) [Example 13, rac-(1R,6S)-2,2-difluoro-6-[4-(propan-2-yl)piperazin-1-yl]cyclohexyl 4-(1-cyclopropyl-1H-1,2,4-triazol-3-yl)-4-methylpiperidine-1-carboxylate]
22 | 149% | Cc1cnc(C2CCN(C(=O)N[C@@H]3[C@@H](N4CCN(C(C)C)CC4)CCCC3(F)F)CC2)c(F)c1 (racemic) [Example 51, rac-N-{(1R,6S)-2,2-difluoro-6-[4-(propan-2-yl)piperazin-1-yl]cyclohexyl}-4-(3-fluoro-5-methylpyridin-2-yl)piperidine-1-carboxamide]
23 | 137% | Cc1ccc(C2CCN(C(=O)N[C@H]3CCCC[C@@H]3N3CCN(C(C)C)CC3)CC2)cc1 (racemic) [Example 1, rac-4-(4-Methylphenyl)-N-{(1S,2S)-2-[4-(propan-2-yl)piperazin-1-yl]cyclohexyl}piperidine-1-carboxamide]
